ChEMBL document CHEMBL3885861, “Open TG-GATES”

Species: Rattus norvegicus
Assay: Open TG-GATES - Regimen: Single
Format: toxicity, organism-based, Sprague-Dawley
Design: regimen Single, gender Male, age 6 weeks
Details: in vivo, po, route gavage; for KIDNEY_L / KIDNEY_R / KIDNEY_TOTAL: tissue Kidney; for LIVER: tissue Liver
[1] = 0 mg/kg, 24 h, tissue Plasma, dose level Control
[2] = 60 mg/kg, 3 h, tissue Blood, dose level Low
[3] = 60 mg/kg, 3 h, tissue Plasma, dose level Low
[4] = 60 mg/kg, 6 h, tissue Blood, dose level Low
[5] = 60 mg/kg, 6 h, tissue Plasma, dose level Low

In the case of `CC(C)Cc1ccc(C(C)C(=O)O)cc1` (centres undefined) [IBUPROFEN], the TC [1] is reported as 79.4 mg/dL, the TP [1] is reported as 5.5 g/dL and the gamma-GTP [1] is reported as 1.2 IU/L. It also gave a TERMINAL_BW (60 mg/kg, 3 h, dose level Low) of 204.2 g, an APTT [2] of 21.7 s and a Bas [2] of 0%. For the same molecule, the Eos [2] was 0%, the Fbg [2] was 294.6 mg/dL and the Ht [2] was 39.3%. The Lym [2] was 73.8%, the MCH [2] was 21.4 pg and the MCHC [2] was 33.7%. The MCV [2] was 63.8 fL, the Mono [2] was 2.2% and the Neu [2] was 22.6%. It also gave a PT [2] of 15.3 s, an RBC [2] of 618.2 x10_4/ul and a Ret [2] of 7.9%. The WBC [2] was 101.5 x10_2/uL, the KIDNEY_L (60 mg/kg, 3 h, dose level Low) was 0.9 g and the KIDNEY_R (60 mg/kg, 3 h, dose level Low) was 0.9 g. The KIDNEY_TOTAL (60 mg/kg, 3 h, dose level Low) was 1.7 g, the LIVER (60 mg/kg, 3 h, dose level Low) was 9.2 g and the ALP [3] was 1434.6 IU/L. It also gave an ALT [3] of 47.8 IU/L, an AST [3] of 79.4 IU/L and a CRE [3] of 0.2 mg/dL. For the same molecule, the DBIL [3] was 0.002 mg/dL, the GLC [3] was 177 mg/dL and the IP [3] was 8.4 mg/dL. The K [3] was 4.1 meq/L, the LDH [3] was 256 IU/L and the Na [3] was 141.2 meq/L. The PL [3] was 144.8 mg/dL, the RALB [3] was 3 g/dL and the TBIL [3] was 0.028 mg/dL. The TC [3] was 85.2 mg/dL, the TG [3] was 64.2 mg/dL and the TP [3] was 5.4 g/dL. It also gave a gamma-GTP [3] of 1.4 IU/L, a TERMINAL_BW (60 mg/kg, 6 h, dose level Low) of 205.3 g and an APTT [4] of 23.2 s. For the same molecule, the Bas [4] was 0%, the Eos [4] was 1% and the Fbg [4] was 292.4 mg/dL. It also gave a Hb [4] of 13.4 g/dL, a Ht [4] of 39.3% and a Lym [4] of 72.2%. It also gave an MCH [4] of 21.6 pg, an MCHC [4] of 34% and an MCV [4] of 63.5 fL. The Mono [4] was 2.6%, the PT [4] was 16 s and the Plat [4] was 116.1 x10_4/uL. It also gave an RBC [4] of 619.4 x10_4/ul, a Ret [4] of 8% and a WBC [4] of 76.4 x10_2/uL. The KIDNEY_L (60 mg/kg, 6 h, dose level Low) was 0.9 g, the KIDNEY_R (60 mg/kg, 6 h, dose level Low) was 1 g and the KIDNEY_TOTAL (60 mg/kg, 6 h, dose level Low) was 1.9 g. The LIVER (60 mg/kg, 6 h, dose level Low) was 8.8 g, the ALP [5] was 1432.6 IU/L and the ALT [5] was 45 IU/L. It also gave an AST [5] of 79.6 IU/L, a CRE [5] of 0.1 mg/dL and a DBIL [5] of 0.004 mg/dL. For the same molecule, the GLC [5] was 174.8 mg/dL, the IP [5] was 9.6 mg/dL and the K [5] was 4.5 meq/L. For the same molecule, the LDH [5] was 256.6 IU/L, the Na [5] was 140 meq/L and the PL [5] was 130.4 mg/dL. It also gave an RALB [5] of 2.9 g/dL and a TBIL [5] of 0.032 mg/dL.
